Source: US9624182B2, “Compounds as lysophosphatidic acid receptor antagonists” (Amira Pharmaceuticals, Inc., priority 2009, dated 2017)

Each molecule was assayed against T1, human LPA1 (Homo sapiens, UniProt Q92633) (assay: LPA1 calcium flux assay). Settings: CHO cells expressing human LPA1, stimulated with 10 nM LPA; read-out: HLPA1 Ca Flux IC50.
T1 construct: the full-length cDNA for human LPA1 was obtained by PCR of the reverse transcription reaction; expressed in transfected cells
Type: cell-based
Procedure, shortened: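 Antagonism measured as block of 10 nM LPA-evoked calcium rise in stable human LPA1-CHO cells. After overnight serum-free culture and 1 h dye loading at 37 °C (buffer with 0.3% fatty-acid-free albumin), compound was added for 30 min at room temperature. Titration curves gave IC50.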

T1 sequence (Q92633 whole entry): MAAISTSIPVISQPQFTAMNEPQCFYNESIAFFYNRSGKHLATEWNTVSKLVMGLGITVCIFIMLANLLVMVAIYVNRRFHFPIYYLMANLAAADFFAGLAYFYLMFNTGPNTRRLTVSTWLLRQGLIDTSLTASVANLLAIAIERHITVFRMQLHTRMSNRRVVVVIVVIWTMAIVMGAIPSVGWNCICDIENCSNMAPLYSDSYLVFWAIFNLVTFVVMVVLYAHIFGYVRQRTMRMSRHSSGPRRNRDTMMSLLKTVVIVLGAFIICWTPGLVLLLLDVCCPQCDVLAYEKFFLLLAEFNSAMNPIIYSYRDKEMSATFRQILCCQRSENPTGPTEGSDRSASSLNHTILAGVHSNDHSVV

IC50 | Compound
< 300 nM | Cc1noc(-c2ccc(-c3ccc(C(C)C(=O)O)cc3)cc2)c1CC(F)(F)CCc1ccccc1 (stereo not shown) [Compound 1-136, 2-{4′-[4-(2,2-Difluoro-4-phenyl-butyl)-3-methyl-isoxazol-5-yl]-biphenyl-4-yl}-propionic acid]
1000 to 50000 nM | Cc1noc(-c2ccc(-c3ccc(C4(C(=O)O)CC4)cc3)cc2)c1C(=O)CCc1ccccc1 [Compound 1-157, 1-{4′-[3-Methyl-4-(3-phenyl-propionyl)-isoxazol-5-yl]-biphenyl-4-yl}-cyclopropanecarboxylic acid]
> 50000 nM | Cc1ccc(S(=O)(=O)NC(=O)Nc2c(C)noc2-c2ccc(-c3ccc(C4(C(=O)NS(=O)(=O)c5ccc(C)cc5)CC4)cc3)cc2)cc1 [Compound 2-5, 4-Methyl-N-(1-{4′-[3-methyl-4-(3-p-tolunesulfonyl-ureido)-isoxazol-5-yl]-biphenyl-4-yl}-cyclopropanecarbonyl)-benzenesulfonamide]
1000 to 50000 nM | COc1ccc(CCC(O)c2c(C)noc2-c2ccc(-c3ccc(C4(CC(=O)O)CC4)cc3)cc2)cc1 (stereo not shown) [Compound 1-247, [1-(4′-{4-[1-Hydroxy-3-(4-methoxy-phenyl)-propyl]-3-methyl-isoxazol-5-yl}-biphenyl-4-yl)-cyclopropyl]-acetic acid]
< 300 nM | Cc1noc(-c2ccc(-c3ccc(C4(C(=O)O)CC4)cc3)cc2)c1C(O)/C=C/c1ccccc1 (stereo not shown) [Compound 1-158, 1-{4′-[4-((E)-1-Hydroxy-3-phenyl-allyl)-3-methyl-isoxazol-5-yl]-biphenyl-4-yl}-cyclopropanecarboxylic acid]
< 300 nM | Cc1noc(-c2ccc(-c3ccc(C4(C(=O)O)CC4)cc3)cc2)c1CNC(=O)Cc1ccccc1 [Compound 1-58, 1-{4′-[3-Methyl-4-(phenylacetylamino-methyl)-isoxazol-5-yl]-biphenyl-4-yl}-cyclopropanecarboxylic acid]
< 300 nM | Cc1noc(-c2ccc(-c3ccc(C4(C(=O)O)CC4)cc3)cc2)c1C[S+]([O-])CCc1ccccc1 (stereo not shown) [Compound 1-54, 1-{4′-[3-Methyl-4-(2-phenyl-ethanesulfinylmethyl)-isoxazol-5-yl]-biphenyl-4-yl}-cyclopropanecarboxylic acid]
< 300 nM | Cc1noc(-c2ccc(-c3ccc(C4(C(=O)O)CC4)cc3)cc2)c1Nc1cccc(C(N)=O)n1 [Compound 1-312, 1-{4′-[4-(6-Carbamoyl-pyridin-2-ylamino)-3-methyl-isoxazol-5-yl]-biphenyl-4-yl}-cyclopropanecarboxylic acid]
300 to 1000 nM | Cc1noc(-c2ccc(-c3ccc(C4(C(=O)O)CC4)cc3)cc2)c1NC(CCc1ccccc1)c1ccccc1 (stereo not shown) [Compound 1-214, 1-{4′-[4-(1,3-Diphenyl-propylamino)-3-methyl-isoxazol-5-yl]-biphenyl-4-yl}-cyclopropanecarboxylic acid]
1000 to 50000 nM | Cc1noc(-c2ccc(-c3ccc(C4(C(=O)O)CC4)cc3)cc2)c1Nc1cccc(C(=O)O)n1 [Compound 1-298, 6-{5-[4′-(1-Carboxy-cyclopropyl)-biphenyl-4-yl]-3-methyl-isoxazol-4-ylamino}-pyridine-2-carboxylic acid]
< 300 nM | Cc1noc(-c2ccc(-c3ccc(C4(C(=O)O)CC4)cc3)cc2)c1NC(C)CSc1ccccc1 (stereo not shown) [Compound 1-278, 1-{4′-[3-Methyl-4-(1-methyl-2-phenylsulfanyl-ethylamino)-isoxazol-5-yl]-biphenyl-4-yl}-cyclopropanecarboxylic acid]
< 300 nM | Cc1noc(-c2ccc(-c3ccc(C4(CC(=O)O)CC4)cc3)cc2)c1C(O)CCCc1ccccc1 (stereo not shown) [Compound 1-140, (1-{4′-[4-(1-Hydroxy-4-phenyl-butyl)-3-methyl-isoxazol-5-yl]-biphenyl-4-yl}-cyclopropyl)-acetic acid]
300 to 1000 nM | Cc1noc(-c2ccc(-c3ccc(C#CC(=O)O)cc3)cc2)c1N[C@@H](C)CCc1cccc(C(F)(F)F)c1 [Compound 1-307, (4′-{3-Methyl-4-[(S)-1-methyl-3-(3-trifluoromethyl-phenyl)-propylamino]-isoxazol-5-yl}-biphenyl-4-yl)-propynoic acid]
1000 to 50000 nM | Cc1noc(-c2ccc(-c3ccc(C4(C(=O)O)CC4)cc3)cc2)c1CCC(=O)N(C)C(C)c1ccccc1 (stereo in doubt) [Compound 1-117, 1-[4′-(3-Methyl-4-{2-[methyl-((R)-1-phenyl-ethyl)-carbamoyl]-ethyl}-isoxazol-5-yl)-biphenyl-4-yl]-cyclopropanecarboxylic acid]
< 300 nM | Cc1noc(-c2ccc(-c3ccc(C4(C(=O)O)CC4)cc3)cc2)c1N(C)C(C)CCc1ccccc1 (stereo not shown) [Compound 1-267, 1-(4′-{3-Methyl-4-[methyl-(1-methyl-3-phenyl-propyl)-amino]-isoxazol-5-yl}-biphenyl-4-yl)-cyclopropanecarboxylic acid]
< 300 nM | Cc1cccc(SCC(O)c2c(C)noc2-c2ccc(-c3ccc(C4(C(=O)NS(C)(=O)=O)CC4)cc3)cc2)c1 (stereo not shown) [Compound 2-13, N-(1-{4′-[4-(1-Hydroxy-2-m-tolylsulfanyl-ethyl)-3-methyl-isoxazol-5-yl]-biphenyl-4-yl}-cyclopropanecarbonyl)-methanesulfonamide]

IC50 | Compound
1000 to 50000 nM | Cc1noc(-c2ccc(-c3ccc(C4(C(=O)O)CC4)cc3)cc2)c1CN(CC(C)c1ccccc1)C(=O)c1ccccc1 (stereo not shown) [Compound 1-74, 1-[4′-(4-{[Benzoyl-(2-phenyl-propyl)-amino]-methyl}-3-methyl-isoxazol-5-yl)-biphenyl-4-yl]-cyclopropanecarboxylic acid]
300 to 1000 nM | Cc1noc(-c2ccc(-c3ccc(C4(CC(=O)NS(C)(=O)=O)CC4)cc3)cc2)c1C(CCCc1ccccc1)OC(=O)NS(C)(=O)=O (stereo not shown) [Compound 2-15, N-Sulfonylmethyl carbamic acid 1-(5-{4′-[1-(2-methanesulfonylamino-2-oxo-ethyl)-cyclopropyl]-biphenyl-4-yl}-3-methyl-isoxazol-4-yl)-4-phenyl-butyl ester]
< 300 nM | Cc1noc(-c2ccc(-c3ccc(C(C)(C)C(=O)O)cc3)cc2)c1CSCCc1ccccc1 [Compound 1-133, 2-Methyl-2-[4′-(3-methyl-4-phenethylsulfanylmethyl-isoxazol-5-yl)-biphenyl-4-yl]-propionic acid]
300 to 1000 nM | Cc1noc(-c2ccc(-c3ccc(C4(C(=O)O)CC4)cc3)cc2)c1NC1Cc2ccccc2C1 [Compound 1-271, 1-{4′-[4-(Indan-2-ylamino)-3-methyl-isoxazol-5-yl]-biphenyl-4-yl}-cyclopropanecarboxylic acid]
< 300 nM | Cc1noc(-c2ccc(-c3ccc(C4(C(=O)O)CC4)cc3)cc2)c1C(O)CCCc1cccnc1 (stereo not shown) [Compound 1-260, 1-{4′-[4-(1-Hydroxy-4-pyridin-3-yl-butyl)-3-methyl-isoxazol-5-yl]-biphenyl-4-yl}-cyclopropanecarboxylic acid]
300 to 1000 nM | CCC(C(=O)O)c1ccc(-c2ccc(-c3onc(C)c3C(O)CCCc3ccccc3C(F)(F)F)cc2)cc1 (stereo not shown) [Compound 1-171, 2-(4′-{4-[1-Hydroxy-4-(2-trifluoromethyl-phenyl)-butyl]-3-methyl-isoxazol-5-yl}-biphenyl-4-yl)-butyric acid]
< 300 nM | Cc1noc(-c2ccc(-c3ccc([C@H]4C[C@H]4C(=O)O)cc3)cc2)c1/C=C/CCc1ccccc1 (relative stereo) [Compound 1-129, (cis)-2-{4′-[3-Methyl-4-(4-phenyl-but-1-enyl)-isoxazol-5-yl]-biphenyl-4-yl}-cyclopropanecarboxylic acid]
< 300 nM | Cc1noc(-c2ccc(-c3ccc(C4(CC(=O)O)CC4)cc3)cc2)c1NC(C)CCc1ccc(Cl)cc1 (stereo not shown) [Compound 1-218, [1-(4′-{4-[3-(4-Chloro-phenyl)-1-methyl-propylamino]-3-methyl-isoxazol-5-yl}-biphenyl-4-yl)-cyclopropyl]-acetic acid]
1000 to 50000 nM | Cc1noc(-c2ccc(-c3ccc(C4(C(=O)O)CC4)cc3)cc2)c1CCN(Cc1ccccc1)S(C)(=O)=O [Compound 1-143, 1-(4′-{4-[2-(Benzyl-methanesulfonyl-amino)-ethyl]-3-methyl-isoxazol-5-yl}-biphenyl-4-yl)-cyclopropanecarboxylic acid]
< 300 nM | Cc1noc(-c2ccc(-c3ccc(C4(CC(=O)O)CC4)cc3)cc2)c1NC(C)CCc1c(F)cccc1Cl (stereo not shown) [Compound 1-219, [1-(4′-{4-[3-(2-Chloro-6-fluoro-phenyl)-1-methyl-propylamino]-3-methyl-isoxazol-5-yl}-biphenyl-4-yl)-cyclopropyl]-acetic acid]
1000 to 50000 nM | Cc1noc(-c2ccc(-c3ccc(C4(C(=O)O)CC4)cc3)cc2)c1CNC(=O)NCc1ccccc1 [Compound 1-59, 1-{4′-[4-(3-Benzyl-ureidomethyl)-3-methyl-isoxazol-5-yl]-biphenyl-4-yl}-cyclopropanecarboxylic acid]
1000 to 50000 nM | COc1ccc(CC(C)Nc2c(C)noc2-c2ccc(-c3ccccc3CC(=O)O)cc2)cc1 (stereo not shown) [Compound 1-238, (4′-{4-[2-(4-Methoxy-phenyl)-1-methyl-ethylamino]-3-methyl-isoxazol-5-yl}-biphenyl-2-yl)-acetic acid]
1000 to 50000 nM | Cc1noc(-c2ccc(-c3ccc(C4(C(=O)O)CC4)cc3)cc2)c1C=CC(C)Cc1ccc(C(C)C)cc1 (stereo not shown) [Compound 1-111, 1-(4′-{4-[4-(4-Isopropyl-phenyl)-3-methyl-but-1-enyl]-3-methyl-isoxazol-5-yl}-biphenyl-4-yl)-cyclopropanecarboxylic acid]
1000 to 50000 nM | Cc1noc(-c2ccc(-c3ccc(C4(C(=O)O)CC4)cc3)cc2)c1NC(=O)CCc1ccccc1 [Compound 1-4, 1-{4′-[3-Methyl-4-(3-phenyl-propionylamino)-isoxazol-5-yl]-biphenyl-4-yl}-cyclopropanecarboxylic acid]
< 300 nM | Cc1noc(-c2ccc(-c3ccc(C4(C(=O)O)CC4)cc3)cc2)c1C(O)C(=O)NCc1ccccc1 (stereo not shown) [Compound 1-252, 1-{4′-[4-(Benzylcarbamoyl-hydroxy-methyl)-3-methyl-isoxazol-5-yl]-biphenyl-4-yl}-cyclopropanecarboxylic acid]
